Test [1] has as its system a variety of test species. Description: Pre-emergence herbicidal activity (Example 8a, Table 2). More on the design: key: 0 = no damage to plant, 5 = total damage to plant. The class given is in vivo. The conditions noted are these: application pre-emergence, rate 1000 g/ha, evaluated after 13 days. Put shortly: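 Seeds sown in standard soil in pots, sprayed one day later (pre-emergence) with aqueous solution from acetone/water (50:50) formulation with 0.5% Tween 20. Glasshouse at 24/16 °C day/night, 14 h light, 65% humidity, watered twice daily. Damage scored after 13 days, 0 (none) to 5 (total).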

The subject of test [2] is a variety of test species. Description: Post-emergence herbicidal activity (Example 8b, Table 3). The note with it: application post-emergence, rate 1000 g/ha, evaluated after 13 days, scale 0-5; for Herbicidal damage score, ABUTH: Abutilon theophrasti; for Herbicidal damage score, ALOMY: Alopecurus myosuroides; for Herbicidal damage score, AMARE: Amaranthus retroflexus; for Herbicidal damage score, ECHCG: Echinochloa crus-galli; for Herbicidal damage score, SETFA: Setaria faberi; for Herbicidal damage score, ZEAMX: Zea mays. The format is in vivo. Put shortly:
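Foliar application to 8-day-old plants using a 0.5% Tween 20 acetone/water carrier; phytotoxicity is scored visually from 0 to 5 after 13 days of growth at 24/16 °C day/night.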

SMILES strings stand for the structures.

Regarding `CCn1nc(N2C(=O)C(Cl)=C(C)C2O)c2c1C(C)(C)CC2` (stereo not drawn) [Compound E2], in test [1], the “Pre-emergence herbicidal activity, damage score ABUTH” value is 5; the “Pre-emergence herbicidal activity, damage score ALOMY” value is listed as 3; the “Pre-emergence herbicidal activity, damage score AMARE” value worked out at 5; the “Pre-emergence herbicidal activity, damage score ECHCG” value was 5. Also, in test [1], the “Pre-emergence herbicidal activity, damage score SETFA” value was found to be 5 and the “Pre-emergence herbicidal activity, damage score ZEAMX” value was 3. Also, in test [2], the “Herbicidal damage score, ABUTH” value worked out at 5; the “Herbicidal damage score, ALOMY” value worked out at 5; the “Herbicidal damage score, AMARE” value is 5; the “Herbicidal damage score, ECHCG” value is listed as 5. In test [2], the “Herbicidal damage score, SETFA” value stood at 5 and the “Herbicidal damage score, ZEAMX” value came to 5.
Take `CC1=C(Br)C(=O)N(c2cc3n(n2)CCCC3(C)C)C1O` (stereo not drawn) [Compound M2]: in test [1], the “Pre-emergence herbicidal activity, damage score ABUTH” value worked out at 5; the “Pre-emergence herbicidal activity, damage score ALOMY” value stood at 4; the “Pre-emergence herbicidal activity, damage score AMARE” value is listed as 5; the “Pre-emergence herbicidal activity, damage score ECHCG” value is given as 5. Further, in test [1], the “Pre-emergence herbicidal activity, damage score SETFA” value is listed as 4 and the “Pre-emergence herbicidal activity, damage score ZEAMX” value stood at 3. Further, in test [2], the “Herbicidal damage score, ABUTH” value came to 5; the “Herbicidal damage score, ALOMY” value came to 5; the “Herbicidal damage score, AMARE” value amounted to 5; the “Herbicidal damage score, ECHCG” value was 5. Moreover, in test [2], the “Herbicidal damage score, SETFA” value was 5 and the “Herbicidal damage score, ZEAMX” value worked out at 3.
Consider `CC1=C(Cl)C(=O)N(c2nn(C)c(C(C)(C)C)c2C#N)C1O` (stereo not drawn) [Compound D1], for which, in test [1], the “Pre-emergence herbicidal activity, damage score ABUTH” value is given as 5; the “Pre-emergence herbicidal activity, damage score ALOMY” value is 4; the “Pre-emergence herbicidal activity, damage score AMARE” value came to 5; the “Pre-emergence herbicidal activity, damage score ECHCG” value is listed as 4. In addition, in test [1], the “Pre-emergence herbicidal activity, damage score SETFA” value turned out to be 4 and the “Pre-emergence herbicidal activity, damage score ZEAMX” value is on record as 2. In test [2], the “Herbicidal damage score, ABUTH” value came out at 5; the “Herbicidal damage score, ALOMY” value came to 4; the “Herbicidal damage score, AMARE” value is listed as 5; the “Herbicidal damage score, ECHCG” value amounted to 5. In test [2], the “Herbicidal damage score, SETFA” value is given as 5 and the “Herbicidal damage score, ZEAMX” value was found to be 3.
As to `CC1=C(Cl)C(=O)N(c2cc(C(F)C(C)(C)C)n(C)n2)C1O` (mixture of isomers) [Compound B37], in test [1], the “Pre-emergence herbicidal activity, damage score ABUTH” value is 4; the “Pre-emergence herbicidal activity, damage score ALOMY” value is given as 3; the “Pre-emergence herbicidal activity, damage score AMARE” value was 5; the “Pre-emergence herbicidal activity, damage score ECHCG” value is given as 3. In addition, in test [1], the “Pre-emergence herbicidal activity, damage score SETFA” value is reported as 4 and the “Pre-emergence herbicidal activity, damage score ZEAMX” value was 3. In test [2], the “Herbicidal damage score, ABUTH” value amounted to 4; the “Herbicidal damage score, ALOMY” value was 5; the “Herbicidal damage score, AMARE” value is 5; the “Herbicidal damage score, ECHCG” value came to 5. In test [2], the “Herbicidal damage score, SETFA” value is given as 5 and the “Herbicidal damage score, ZEAMX” value worked out at 4.
For the compound `CC1=C(Cl)C(=O)N(c2cc(C(F)(F)C(F)(F)F)n(C)n2)C1O` (stereo not drawn) [Compound B4], in test [1], the “Pre-emergence herbicidal activity, damage score ABUTH” value amounted to 5; the “Pre-emergence herbicidal activity, damage score ALOMY” value amounted to 4; the “Pre-emergence herbicidal activity, damage score AMARE” value was found to be 5; the “Pre-emergence herbicidal activity, damage score ECHCG” value stood at 5. In addition, in test [1], the “Pre-emergence herbicidal activity, damage score SETFA” value was 5 and the “Pre-emergence herbicidal activity, damage score ZEAMX” value is on record as 2. Moreover, in test [2], the “Herbicidal damage score, ABUTH” value turned out to be 5; the “Herbicidal damage score, ALOMY” value was determined as 5; the “Herbicidal damage score, AMARE” value came out at 5; the “Herbicidal damage score, ECHCG” value turned out to be 5. In addition, in test [2], the “Herbicidal damage score, SETFA” value stood at 5 and the “Herbicidal damage score, ZEAMX” value is on record as 3.
With `CC1=C(Cl)C(=O)N(c2cc(C(C)(C)C)[nH]n2)C1O` (stereo not drawn) [Compound A1], in test [1], the “Pre-emergence herbicidal activity, damage score ABUTH” value was 5; the “Pre-emergence herbicidal activity, damage score ALOMY” value is listed as 3; the “Pre-emergence herbicidal activity, damage score AMARE” value came to 5; the “Pre-emergence herbicidal activity, damage score ECHCG” value amounted to 5. For the same compound, in test [1], the “Pre-emergence herbicidal activity, damage score SETFA” value was 5 and the “Pre-emergence herbicidal activity, damage score ZEAMX” value came out at 2. Further, in test [2], the “Herbicidal damage score, ABUTH” value was 5; the “Herbicidal damage score, ALOMY” value is reported as 5; the “Herbicidal damage score, AMARE” value came to 5; the “Herbicidal damage score, ECHCG” value was determined as 5. In test [2], the “Herbicidal damage score, SETFA” value was 5 and the “Herbicidal damage score, ZEAMX” value is given as 5.
For `CC(C)=C(C)c1cc(N2C(=O)C(Cl)=C(C)C2O)nn1C` (stereo not drawn) [Compound B48], in test [1], the “Pre-emergence herbicidal activity, damage score ABUTH” value is recorded as 4; the “Pre-emergence herbicidal activity, damage score ALOMY” value is 4; the “Pre-emergence herbicidal activity, damage score AMARE” value is recorded as 5; the “Pre-emergence herbicidal activity, damage score ECHCG” value is 4. In test [1], the “Pre-emergence herbicidal activity, damage score SETFA” value came to 3 and the “Pre-emergence herbicidal activity, damage score ZEAMX” value came out at 1. In test [2], the “Herbicidal damage score, ABUTH” value was determined as 5; the “Herbicidal damage score, ALOMY” value was 4; the “Herbicidal damage score, AMARE” value was determined as 5; the “Herbicidal damage score, ECHCG” value is 5. Also, in test [2], the “Herbicidal damage score, SETFA” value is listed as 4 and the “Herbicidal damage score, ZEAMX” value is 1.
As for `CCC1CCn2nc(N3C(=O)C(Cl)=C(C)C3O)cc21` (mixture of isomers) [Compound C10], in test [1], the “Pre-emergence herbicidal activity, damage score ABUTH” value stood at 4; the “Pre-emergence herbicidal activity, damage score ALOMY” value worked out at 4; the “Pre-emergence herbicidal activity, damage score AMARE” value worked out at 5; the “Pre-emergence herbicidal activity, damage score ECHCG” value was found to be 4. In test [1], the “Pre-emergence herbicidal activity, damage score SETFA” value was 5 and the “Pre-emergence herbicidal activity, damage score ZEAMX” value was found to be 2. For the same compound, in test [2], the “Herbicidal damage score, ABUTH” value is given as 5; the “Herbicidal damage score, ALOMY” value is reported as 4; the “Herbicidal damage score, AMARE” value worked out at 5; the “Herbicidal damage score, ECHCG” value is 5. In addition, in test [2], the “Herbicidal damage score, SETFA” value stood at 5 and the “Herbicidal damage score, ZEAMX” value amounted to 4.
Regarding `CC1=C(Cl)C(=O)N(c2cc(C(C)c3ccccc3)n(C)n2)C1O` (mixture of isomers) [Compound B41], in test [1], the “Pre-emergence herbicidal activity, damage score ABUTH” value came out at 4; the “Pre-emergence herbicidal activity, damage score ALOMY” value was 3; the “Pre-emergence herbicidal activity, damage score AMARE” value came to 2; the “Pre-emergence herbicidal activity, damage score ECHCG” value amounted to 4. Also, in test [1], the “Pre-emergence herbicidal activity, damage score SETFA” value is 4 and the “Pre-emergence herbicidal activity, damage score ZEAMX” value is 2. In test [2], the “Herbicidal damage score, ABUTH” value amounted to 5; the “Herbicidal damage score, ALOMY” value is 5; the “Herbicidal damage score, AMARE” value amounted to 4; the “Herbicidal damage score, ECHCG” value worked out at 5. Also, in test [2], the “Herbicidal damage score, SETFA” value is reported as 5 and the “Herbicidal damage score, ZEAMX” value is listed as 2.
In the case of `CC1=C(Br)C(=O)N(c2cc3n(n2)CCC3(C)C)C1O` (stereo not drawn) [Compound M1], in test [1], the “Pre-emergence herbicidal activity, damage score ABUTH” value is 5; the “Pre-emergence herbicidal activity, damage score ALOMY” value was found to be 4; the “Pre-emergence herbicidal activity, damage score AMARE” value is 5; the “Pre-emergence herbicidal activity, damage score ECHCG” value is on record as 5. In test [1], the “Pre-emergence herbicidal activity, damage score SETFA” value is 5 and the “Pre-emergence herbicidal activity, damage score ZEAMX” value is reported as 4. In test [2], the “Herbicidal damage score, ABUTH” value is on record as 5; the “Herbicidal damage score, ALOMY” value is 5; the “Herbicidal damage score, AMARE” value is on record as 5; the “Herbicidal damage score, ECHCG” value is on record as 5. For the same compound, in test [2], the “Herbicidal damage score, SETFA” value was 5 and the “Herbicidal damage score, ZEAMX” value came out at 4.
On to `CC1=C(Cl)C(=O)N(c2cc(C(F)(F)F)n(C(C)C)n2)C1O` (stereo not drawn) [Compound C7], for which, in test [1], the “Pre-emergence herbicidal activity, damage score ABUTH” value is 4; the “Pre-emergence herbicidal activity, damage score ALOMY” value is on record as 3; the “Pre-emergence herbicidal activity, damage score AMARE” value is given as 4; the “Pre-emergence herbicidal activity, damage score ECHCG” value is given as 4. In addition, in test [1], the “Pre-emergence herbicidal activity, damage score SETFA” value is 4 and the “Pre-emergence herbicidal activity, damage score ZEAMX” value is 3. Also, in test [2], the “Herbicidal damage score, ABUTH” value was determined as 4; the “Herbicidal damage score, ALOMY” value is listed as 4; the “Herbicidal damage score, AMARE” value was 4; the “Herbicidal damage score, ECHCG” value was determined as 5. For the same compound, in test [2], the “Herbicidal damage score, SETFA” value is on record as 4 and the “Herbicidal damage score, ZEAMX” value worked out at 2.
With `CCn1nc(N2C(=O)C(Cl)=C(C)C2O)cc1C(C)(C)C` (stereo not drawn) [Compound C8], in test [1], the “Pre-emergence herbicidal activity, damage score ABUTH” value turned out to be 4; the “Pre-emergence herbicidal activity, damage score ALOMY” value amounted to 4; the “Pre-emergence herbicidal activity, damage score AMARE” value is on record as 5; the “Pre-emergence herbicidal activity, damage score ECHCG” value was found to be 4. Also, in test [1], the “Pre-emergence herbicidal activity, damage score SETFA” value stood at 5 and the “Pre-emergence herbicidal activity, damage score ZEAMX” value was determined as 2. Besides, in test [2], the “Herbicidal damage score, ABUTH” value was determined as 5; the “Herbicidal damage score, ALOMY” value was 5; the “Herbicidal damage score, AMARE” value was 4; the “Herbicidal damage score, ECHCG” value came out at 5. In test [2], the “Herbicidal damage score, SETFA” value came to 5 and the “Herbicidal damage score, ZEAMX” value is on record as 3.

Source of the values: patent US9605004B2, “Chemical compounds” (SYNGENTA LIMITED, priority 2013, dated 2017).
